# In US9784730B2, “Nanoparticle for targeting brain tumors and delivery of O6-benzylguanine” (University of Washington through its Center for …, priority 2013, dated 2017):
# What was measured:
# brain tumors = details: cited from earlier work
# SF767 cells = experiment: Clonogenic survival assay with TMZ; format: cell-based, human
# Protocol: SF767 cells are noted for their pronounced resistance to TMZ (LD50 about 600 μM) mediated in large part by MGMT. The effect of suppression of MGMT activity by NPCP-BG on TMZ-mediated reduction in clonogenic survival of SF767 is illustrated in FIG. 6. Cells were exposed to NPCP-BG equivalent to 20 μM free drug for 2 hr followed by incubation with TMZ for 24 hr in the presence of inhibitor. Controls were treated either with 20 μM free BG or with an equivalent volume of DMSO.
# Determination of proliferative survival of SF767 by clonogenic assay was performed as described previously (Blank et al., DNA Repair 2004, 3, 629-638). Briefly, 6-well plates inoculated with 2 mL of supplemented medium containing 1000 to 2000 cells were incubated overnight at 37° C. in 95%/5% air/CO2 to allow reattachment and resumption of proliferation. Cells were then incubated for 2 hrs with inhibitor-conjugated NP equivalent to 20 μM free BG prior to exposure to TMZ. Incubation was continued for 22 hr before changing cells to fresh, drug-free medium to allow formation of colonies ≧50 cells. […] Cytotoxicity was quantitated by linear regression analysis of plots of log surviving fraction v. […] Survival was determined in 4 separate experiments in which every dose was assayed in duplicate (i.e., 8 determinations per TMZ dose) in order to achieve statistical significance.
# [1] = molecular target: T1, O6-methylguanine-DNA methyltransferase (MGMT) (Homo sapiens, UniProt P16455); experiment: MGMT activity assay in treated SF767 cells; format: cell-based; details: 20 μM free BG, 2 hr
# T1 construct: MGMT activity determined in cleared supernatants of whole cell homogenates; endogenous in cells; host or cells: SF767 human GBM cell line (ATCC)
# T1 sequence (P16455 1-207): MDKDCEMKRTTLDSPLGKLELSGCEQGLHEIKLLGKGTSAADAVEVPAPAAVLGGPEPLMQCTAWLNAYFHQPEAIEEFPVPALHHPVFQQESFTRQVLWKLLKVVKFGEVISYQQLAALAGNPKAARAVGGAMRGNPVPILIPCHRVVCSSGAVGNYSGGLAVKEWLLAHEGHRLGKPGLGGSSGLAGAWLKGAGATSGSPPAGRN
# Protocol: In this experiment, MGMT activity was assayed in untreated cells, cells incubated with 20 μM free BG for 2 hr, and cells treated for either 2 hr or 24 hr with NPCP-BG equivalent to 5 μM, 10 μM or 20 μM BG. […] All treatment conditions were normalized as a percent MGMT activity of untreated SF767 cells.
# The MGMT activities of protein extracts of human GBM SF767 cells were measured in a standard biochemical assay that quantifies the transfer of radioactivity from a DNA substrate containing [methyl^3H]O^6-methylguanine (specific activity, 80 Ci/mmol) to protein, as detailed previously (Silber et al., Cancer Res 1998, 58, 1068-1073). 2×10^6 SF767 cells were plated in 100 mm treated dishes and incubated with 20 μM free BG for and 2 hr or 24 hr with NPCP-BG equivalent to 5 μM, 10 μM or 20 μM BG in fully supplemented media. After incubation, cells were washed with PBS and collected and protein extracts were prepared. The protein extract supernatant was prepared by dissolution of washed SF767 pellets of known cell number with non-ionic detergents in the presence of 600 mM NaCl. Aliquots of crude homogenate were saved for DNA determination by the diphenylamine method that measures deoxyribose following degradation of DNA with heat and acid. Crude homogenate was cleared by centrifugation at 10,000×g for 30 min. […]
# [2] = rodent models; cited from earlier work
# [3] = clinical trials, BG included in TMZ regimens; cited from earlier work
compound,measurement,setting,value
chlorotoxin [CTX],Brain tumors targeted of those examined,brain tumors,74 out of 79
"Cn1nnc2c(C(N)=O)ncn2c1=O [TMZ, temozolomide]",TMZ LD50 (dose reducing clonogenic survival to 50%),SF767 cells; TMZ alone,about 600 μM
"Nc1nc(OCc2ccccc2)c2nc[nH]c2n1 [BG, O^6-benzylguanine]",Fold reduction of MGMT activity,[1],about 28 fold
same,MGMT activity as percent of untreated activity,[1],about 3.6%
same,TMZ LD50 in presence of MGMT inhibitor,SF767 cells; inhibitor equivalent to 20 μM BG for 2 hr before TMZ for 24 hr,about 15 μM
same,Half-life reported in literature,[2],1.2 h
same,Reduction of maximum tolerated dose (MTD) of TMZ,[3],50%
